Laboratory results as given in publication PMC12851022, “Targeting the Spliceosomal Protein USP39 Through Allosteric Ligands and PROTAC‐Induced Degradation” (Angewandte Chemie (International Ed. in English), 2025).

Experiments:
USP39_T2 = target: T1, USP39_T2 (Homo sapiens, UniProt Q53GS9); assay: Isothermal titration calorimetry (ITC); assay type: binding
T1 construct: USP39_T2 (ZNF domain only); made in house
T1 sequence (Q53GS9 103-200 limits assumed): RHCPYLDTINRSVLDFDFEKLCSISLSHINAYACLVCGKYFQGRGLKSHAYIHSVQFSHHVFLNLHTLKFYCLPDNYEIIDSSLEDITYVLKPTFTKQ

USP39-OFP [1] = target: T2, USP39-OFP (Homo sapiens, UniProt Q53GS9); assay: In-cell fluorescence degradation assay in HeLa-USP39-OFP cells; assay type: cell-based; settings: 50 nM, 16-h serum starvation, 24-h treatment
T2 construct: expressed in transfected cells; host or cells: HeLa
Description: To evaluate the degradation efficacy of USP39_PROTACs, we adapted our recently developed cellular fluorescence assay in HeLa cells transiently overexpressing USP39‐OFP (HeLa‐USP39‐OFP).^[ [32] ^] Various experimental conditions were tested, including different initial seeding densities, the presence or absence of serum starvation, varying treatment durations, and compound concentration gradients (Figure 4a). Among these, a 16‐h serum starvation followed by a 24‐h treatment provided the most consistent and reproducible degradation of USP39 and was used for further experiments. Under these experimental conditions, a series of CRBN‐ and VHL‐based PROTACs were evaluated in an in‐cell fluorescence assay at a concentration of 50 nM to assess their ability to induce target protein degradation (Figure 4b, Table SI4). […]
Figure 4 Effective and selective degradation of USP39 in cells by USP39‐PROTACs. a) Optimization of cellular degradation assay in HeLa cells transiently overexpressing USP39‑OFP (HeLa‐USP39‐OFP). […] Western blot comparing USP39 levels in VHL WT and VHL KO HeLa cells treated with USP39_PROTAC_V1. k) Fluorescence assay in HEK293T cells co‐expressing USP39‑OFP and either VHL_WT‑EGFP or VHL_m (Δ91–121). […]
T2 sequence (P40337 whole entry, one chain of several, further chain): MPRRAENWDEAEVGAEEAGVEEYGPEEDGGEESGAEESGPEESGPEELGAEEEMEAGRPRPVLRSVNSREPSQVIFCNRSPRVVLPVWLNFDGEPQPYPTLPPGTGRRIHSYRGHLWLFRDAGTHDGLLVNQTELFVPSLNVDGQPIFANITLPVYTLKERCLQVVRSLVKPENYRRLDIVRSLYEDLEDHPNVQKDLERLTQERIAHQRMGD
T2 sequence (Q15370 whole entry partner, one chain of several): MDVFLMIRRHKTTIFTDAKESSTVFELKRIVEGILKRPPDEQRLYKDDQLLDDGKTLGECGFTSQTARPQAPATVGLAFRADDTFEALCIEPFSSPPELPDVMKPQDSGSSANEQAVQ
T2 sequence (Q15369 whole entry partner, one chain of several): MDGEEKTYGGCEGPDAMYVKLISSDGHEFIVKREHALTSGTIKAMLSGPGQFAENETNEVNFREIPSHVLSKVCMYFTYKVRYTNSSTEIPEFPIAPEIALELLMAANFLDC

USP39-OFP [2] = target: T3, USP39-OFP (Homo sapiens, UniProt P40337+Q53GS9); assay: Fluorescence degradation assay in HEK293T cells co-expressing USP39-OFP and VHL_WT-EGFP; assay type: cell-based; settings: VHL WT (VHL_WT-EGFP co-expressed)
T3 construct: expressed in transfected cells
Description: (§1) Figure 4 Effective and selective degradation of USP39 in cells by USP39‐PROTACs. a) Optimization of cellular degradation assay in HeLa cells transiently overexpressing USP39‑OFP (HeLa‐USP39‐OFP). […] GAPDH was used as a loading control. g) Proteasome dependence of USP39 degradation. HeLa‐WT cells were co‐treated with MG132 (0.25 µM) or DMSO control and USP39_PROTAC_V1 for 24 h ST. h) Representative immunofluorescence images of HeLa‐USP39_OFP cells treated with DMSO (NT), USP39_PROTAC_V1 (10 nM, 24 h), or USP39_PROTAC_V1 + MLN4924 (1 µM), stained for USP39 (red) and nuclei (blue). i) Quantification of USP39 degradation by fluorescence microscopy, showing DC50 values of 13 nM without MLN4924 (orange) and 204 nM with MLN4924 (blue) (MLN4924 = 5 uM). j) VHL‐dependence of PROTAC‐induced degradation. Schematic of PROTAC recruitment to VHL via hydroxyl‐proline interactions (His115, Ser111). Western blot comparing USP39 levels in VHL WT and VHL KO HeLa cells treated with USP39_PROTAC_V1. k) Fluorescence assay in HEK293T cells co‐expressing USP39‑OFP and either VHL_WT‑EGFP or VHL_m (Δ91–121). […] Comparison of untreated (NT) and USP39_PROTAC_V1–treated (10 nM, 24 h) samples. Percent spliced/unspliced (S/U) ratios are shown, reflecting USP39‐deficiency–associated splicing defects. Data represent at least four independent biological replicates. […]

USP39-OFP [3] = target: T4, USP39-OFP (Homo sapiens, UniProt Q53GS9); assay: Fluorescence degradation assay in HEK293T cells co-expressing USP39-OFP and VHL_m (Δ91–121); assay type: cell-based
T4 construct: expressed in transfected cells; host or cells: HEK293T
T4 sequence (Q53GS9 1-565): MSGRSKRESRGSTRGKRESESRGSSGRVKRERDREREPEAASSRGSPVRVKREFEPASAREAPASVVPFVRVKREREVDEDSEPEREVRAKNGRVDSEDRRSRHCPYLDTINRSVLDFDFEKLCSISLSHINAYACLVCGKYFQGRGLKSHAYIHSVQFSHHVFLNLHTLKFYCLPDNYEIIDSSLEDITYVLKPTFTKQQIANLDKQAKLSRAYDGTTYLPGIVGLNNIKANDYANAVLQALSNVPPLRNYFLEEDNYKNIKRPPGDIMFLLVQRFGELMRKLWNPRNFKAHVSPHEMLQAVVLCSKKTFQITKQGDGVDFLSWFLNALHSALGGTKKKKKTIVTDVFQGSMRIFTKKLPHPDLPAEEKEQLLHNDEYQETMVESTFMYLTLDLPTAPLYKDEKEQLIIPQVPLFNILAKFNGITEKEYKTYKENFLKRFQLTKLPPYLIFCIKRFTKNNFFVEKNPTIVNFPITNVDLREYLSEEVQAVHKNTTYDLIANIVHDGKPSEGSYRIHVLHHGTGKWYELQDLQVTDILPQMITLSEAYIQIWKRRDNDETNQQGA
Description: as §1

HeLa-WT proteome = assay: Proteome-wide LC-MS/MS and western blot selectivity analysis in HeLa-WT cells; assay type: cell-based, human
Description: Figure 4 Effective and selective degradation of USP39 in cells by USP39‐PROTACs. a) Optimization of cellular degradation assay in HeLa cells transiently overexpressing USP39‑OFP (HeLa‐USP39‐OFP). […] GAPDH was used as a loading control. g) Proteasome dependence of USP39 degradation. HeLa‐WT cells were co‐treated with MG132 (0.25 µM) or DMSO control and USP39_PROTAC_V1 for 24 h ST. h) Representative immunofluorescence images of HeLa‐USP39_OFP cells treated with DMSO (NT), USP39_PROTAC_V1 (10 nM, 24 h), or USP39_PROTAC_V1 + MLN4924 (1 µM), stained for USP39 (red) and nuclei (blue). i) Quantification of USP39 degradation by fluorescence microscopy, showing DC50 values of 13 nM without MLN4924 (orange) and 204 nM with MLN4924 (blue) (MLN4924 = 5 uM). j) VHL‐dependence of PROTAC‐induced degradation. Schematic of PROTAC recruitment to VHL via hydroxyl‐proline interactions (His115, Ser111). Western blot comparing USP39 levels in VHL WT and VHL KO HeLa cells treated with USP39_PROTAC_V1. k) Fluorescence assay in HEK293T cells co‐expressing USP39‑OFP and either VHL_WT‑EGFP or VHL_m (Δ91–121). […] Comparison of untreated (NT) and USP39_PROTAC_V1–treated (10 nM, 24 h) samples. Percent spliced/unspliced (S/U) ratios are shown, reflecting USP39‐deficiency–associated splicing defects. Data represent at least four independent biological replicates.
To assess the selectivity of USP39 degradation, a proteome‐wide analysis was conducted using LC‐MS/MS based proteomics. […] These finding were further validated by western blot (WB) analysis, which confirmed consistent downregulation of USP39, ISG15, and NDRG1.

USP39 = target: T5, USP39 (Homo sapiens, UniProt Q53GS9); assay: Western blot of USP39 levels in VHL KO HeLa cells; assay type: cell-based; parameters: endogenous in cells; host or cells: VHL-KO HeLa
T5 sequence (Q53GS9 1-565): T4 sequence (Q53GS9 1-565)
Description: as §1

T3 sequence (P40337 whole entry, one chain of several): as the sequence (P40337 whole entry, one chain of several, further chain) above
T3 sequence (Q15370 whole entry partner, one chain of several): as the sequence (Q15370 whole entry partner, one chain of several) above
T3 sequence (Q15369 whole entry partner, one chain of several): as the sequence (Q15369 whole entry partner, one chain of several) above

How did the Kd (USP39_T2) turn out when `Cc1ncsc1-c1ccc(CNC(=O)C2CC(O)CN2C(=O)C(NC(=O)CCOCCOCCOCCNC(=O)c2csc(Nc3ccc(Cl)cc3)n2)C(C)(C)C)cc1` (centres unmarked) [USP39_PROTAC_V1] was run?
The Kd was 136 nM.

And the “USP39 degradation in in-cell fluorescence assay” value (USP39-OFP [1])?
The value was “robust degradation activity”.

And the DC50 (USP39-OFP [2])?
Its DC50 is 1 nM.

And the “Fold reduction of degradation effect in VHL_m versus VHL_WT cells” value (USP39-OFP [3])?
The value was “more than 80 fold”.

And the “USP39 level in proteome-wide analysis” value (HeLa-WT proteome; 5 nM and 50 nM, 24 h, over 6000 detectable proteins, p < 0.0001, log2FC < -4)?
Its value is “most significantly downregulated protein”.

And the “NDRG1 and ISG15 levels (off-target)” value (HeLa-WT proteome; 5 nM and 50 nM, 24 h, proteomics, validated by WB)?
Its value is “significant downregulation”.

What about the “USP5 and USP10 levels (homologues)” value (HeLa-WT proteome; proteomic and immunoblot analyses) of the same compound?
Its value is “remained unaffected”.

And the “USP39 degradation in VHL-KO HeLa cells” value (USP39)?
The value was “significantly attenuated”.
